Laboratory results: patent publication US6915969B2, “Method and installation for making flour from ozone-treated grains” (Green Technologies Sarl, priority 1999, dated 2005)

Test: reduction of pesticide contaminants
Set-up: species or system wheat
Details: after treatment by the method of the invention (ozone)
Excerpt: A reduction of about 80% in the content of Chlorpyriphosmethyl (a pesticide generally used in the case of wheat) was thus observed, thus leading certainly to a product which is perfectly acceptable from the point of view of the current food standards.

COP(=S)(OC)Oc1nc(Cl)c(Cl)cc1Cl [Chlorpyriphosmethyl]
reduction in the content of Chlorpyriphosmethyl: about 80%
